According to patent publication US5266463A, “Highly sensitive assay method for L-carnitine and composition for practicing same” (Asahi Kasei Kogyo Kabushiki Kaisha, priority 1990, dated 1993):
“And” between values parts separate entries of the source, which are not always exact repeats. Equal values may be shown once. Read-outs that look alike come from different tables or passages of the source. One block for each compound: values may come before it.

Tested on: L-carnitine dehydrogenase (EC 1.1.1.108) produced by Alcaligenes sp. No. 981 FERM BP-2570
Test: Km-value determination of L-carnitine dehydrogenase (diaphorase/NBT coupled reaction)
Assay type: biochemical
Text: The L-carnitine dehydrogenase used in the composition for assay of L-carnitine according to the present invention can be an enzyme having reactivity on a substrate of L-carnitine together with a suitable coenzyme NAD or thio-NAD. Its suitability can be confirmed by using the said coenzyme and substrate. L-carnitine dehydrogenase produced by Alcaligenes sp. No. 981 (product of Toyo Jozo Co.) has a relative activity of approx. 15% when coenzyme thio-NAD is used, as compared to use of NAD.
Km-value for NAD is measured in various concentrations of NAD^* in a reaction mixture of:
100 mM Tris-HCl buffer (pH 9.0)
5U diaphorase (Toyo Jozo Co.)
0.025% NBT (Wako Pure Chem. Co.)
1% polyoxyethylene (20) sorbitan monooleate (80) (Wako Pure Chem. Co.) and
In the reaction mixture, 50 mM L-carnitine is replaced by 1 mM NAD , and the concentration of L-carnitine is varied to measure the Km-value of L-carnitine.
The results are as shown above.

Compound: C[N+](C)(C)C[C@H](O)CC(=O)[O-] [L-carnitine]
- Km (L-carnitine concentration varied, 1 mM NAD, 100 mM Tris-HCl buffer (pH 9.0), diaphorase, NBT, read-out: Km-value (L-carnitine)): 9300 µM

Compound: NC(=O)c1ccc[n+]([C@@H]2O[C@H](COP(=O)([O-])OP(=O)(O)OC[C@H]3O[C@@H](n4cnc5c(N)ncnc54)[C@H](O)[C@@H]3O)[C@@H](O)[C@H]2O)c1 [NAD, nicotinamide adenine dinucleotide]
- Km (NAD concentration varied, 50 mM L-carnitine, 100 mM Tris-HCl buffer (pH 9.0), diaphorase, NBT, read-out: Km-value (NAD)): 140 µM and 141 µM

- Km (coenzyme thio-NAD, under the same conditions as NAD, read-out: Km-value (thio-NAD)): 400 µM
Compound: NC(=S)c1ccc[n+]([C@@H]2O[C@H](COP(=O)([O-])OP(=O)(O)OC[C@H]3O[C@@H](n4cnc5c(N)ncnc54)[C@H](O)[C@@H]3O)[C@@H](O)[C@H]2O)c1 [thio-NAD, thionicotinamide adenine dinucleotide]
